One experiment relates to gastric acid secretion. The experiment is described as follows: Inhibition of pentagastrin-stimulated gastric acid secretion in conscious gastric fistula dogs (intraduodenal administration). Type of experiment: in vivo. The settings on record: Canis lupus familiaris, dose 0.5 μmol/kg, read-out: Effect, % inhibition (peak inhibitory effect on gastric acid secretion). The protocol: To determine the gastric acid secretion inhibitory properties, experiments have been performed on conscious dogs provided with gastric fistulas of conventional type and duodenal fistulas, the latter ones used for direct intraduodenal administration of the test compounds. After 18 hours starvation and deprivation of water the dogs were given a subcutaneous infusion of pentagastrin (1-4 nmol/kg, h) lasting for 6-7 hours. Gastric juice was collected in consecutive 30 minutes samples. An aliquot of each sample was titrated with 0.1 N NaOH to pH 7.0 for titrable acid concentration using an automatic titrator and pH-meter (Radiometer, Copenhagen, Denmark). Acid output was calculated as mmol H^+ /60 minutes. The percent inhibition compared to control experiments was calculated for each compound and the peak inhibitory effect is given in Table 2 below. […] In the test prior known compounds were compared with the compounds of the present invention as will be evident from the Table 2 below. The following gastric acid inhibiting effect data were obtained for a number of compounds tested according to the method described.
`COc1c(C)cnc(C[S+]([O-])c2nc3cc(C(C)=O)c(C)cc3[nH]2)c1C` (stereo not shown) [Example 11]: the inhibition in vivo at 0.5 µmol/kg was determined as 70%.
As for `COC(=O)c1cc2nc([S+]([O-])Cc3nccc(OC)c3C)[nH]c2cc1C` (stereo not shown) [Example 16], the inhibition in vivo at 0.5 µmol/kg was determined as 65%.
On to `COC(=O)c1cc2nc([S+]([O-])Cc3ncc(C)c(OC)c3C)[nH]c2cc1C` (stereo not shown) [Example 17], for which the inhibition in vivo at 0.5 µmol/kg was 90%.
As for `COC(=O)c1ccc2[nH]c([S+]([O-])Cc3ncc(C)c(OC)c3C)nc2c1` (stereo not shown) [Example 20], the inhibition in vivo at 0.5 µmol/kg worked out at 65%.
On to `COc1c(C)cnc(C[S+]([O-])c2nc3cc(C(C)=O)ccc3[nH]2)c1C` (stereo not shown) [Example 21], for which the inhibition in vivo at 0.5 µmol/kg amounted to 60%.
The same measure, in the same setting: for `COc1ccc2[nH]c([S+]([O-])Cc3ncc(C)c(OC)c3C)nc2c1` (stereo not shown) [Example 23] the value was 65%; for `COc1c(C)cnc(C[S+]([O-])c2nc3cc(C)ccc3[nH]2)c1C` (stereo not shown) [Example 24], 50%.
The same measure, in the same setting: for `COc1c(C)cnc(C[S+]([O-])c2nc3ccccc3[nH]2)c1C` (stereo not shown) [Example 25] the value was 60%; for `COc1c(C)cnc(C[S+]([O-])c2nc3cc(Cl)ccc3[nH]2)c1C` (stereo not shown) [Example 26], 25%; for `COCCOc1ccnc(C[S+]([O-])c2nc3cc(C)ccc3[nH]2)c1` (stereo not shown) [Example 27], 30%.
On the same count and under the same terms, for `CCOC(=O)c1ccc2[nH]c([S+]([O-])Cc3ncc(C)c(OC)c3C)nc2c1` (stereo not shown) [Example 28] the value was 50%; for `COC(=O)c1ccc2[nH]c([S+]([O-])C(C)c3ncc(C)cc3C)nc2c1` (stereo not shown) [Example 29], 40%.

Still in this experiment, the particulars now being: Canis lupus familiaris, dose 1 μmol/kg, read-out: Effect, % inhibition (peak inhibitory effect on gastric acid secretion).
Consider `CC(=O)c1cc2nc([S+]([O-])Cc3nccc(C)c3C)[nH]c2cc1C` (stereo not shown) [Example 4], for which the inhibition in vivo at 1 µmol/kg was determined as 60%.

Staying with this experiment, now noted: Canis lupus familiaris, dose 2 μmol/kg, read-out: Effect, % inhibition (peak inhibitory effect on gastric acid secretion).
Turning to `CC(=O)c1cc2nc([S+]([O-])Cc3cc(C)c(C)cn3)[nH]c2cc1C` (stereo not shown) [Example 1, 2-[2-(4,5-di-methyl)pyridylmethylsulfinyl]-(5-acetyl-6-methyl)benzimidazole], the inhibition in vivo at 2 µmol/kg stood at 90%.
Take `COC(=O)c1cc2nc([S+]([O-])Cc3cc(C)c(C)cn3)[nH]c2cc1C` (stereo not shown) [Example 2]: the inhibition in vivo at 2 µmol/kg came to 60%.
Regarding `COC(=O)c1cc2nc([S+]([O-])Cc3nccc(C)c3C)[nH]c2cc1C` (stereo not shown) [Example 5], the inhibition in vivo at 2 µmol/kg was determined as 90%.
Take `CC(=O)c1cc2nc([S+]([O-])Cc3ncc(C)cc3C)[nH]c2cc1C` (stereo not shown) [Example 7, 2-[2-(3,5-dimethyl)pyridylmethylsulfinyl]-(5-acetyl-6-methyl)benzimidazole]: the inhibition in vivo at 2 µmol/kg was 100%.
As to `COc1ccnc(C[S+]([O-])c2nc3cc(C(C)=O)c(C)cc3[nH]2)c1` (stereo not shown) [Example 9], the inhibition in vivo at 2 µmol/kg was determined as 95%.
Regarding `COc1ccnc(C[S+]([O-])c2nc3c(C)cc(C)cc3[nH]2)c1` (stereo not shown) [Example 10], the inhibition in vivo at 2 µmol/kg came to 40%.
Still for that read-out and setting: the figure for `COC(=O)c1cc2nc([S+]([O-])Cc3ncc(C)cc3C)[nH]c2cc1C` (stereo not shown) [Example 12] is 70%; for `COC(=O)c1cc2nc([S+]([O-])Cc3cc(OC)ccn3)[nH]c2cc1C` (stereo not shown) [Example 14] it is 100%; for `COC(=O)c1ccc2[nH]c([S+]([O-])Cc3ncc(C)cc3C)nc2c1` (stereo not shown) [Example 19] it is 60%.

The experiment is the same for the next values; noted with them: Canis lupus familiaris, dose 4 μmol/kg, read-out: Effect, % inhibition (peak inhibitory effect on gastric acid secretion).
Turning to `Cc1ccc(C[S+]([O-])c2nc3cc(C)ccc3[nH]2)nc1` (stereo not shown) [* 5-CH3, H, H, H, H, CH3, reference compound], the inhibition in vivo at 4 µmol/kg turned out to be 50%.
As for `COC(=O)c1cc2nc([S+]([O-])Cc3ncccc3Br)[nH]c2cc1C` (stereo not shown) [* 5-COOCH3,6-CH3, H, Br, H, H, reference compound], the inhibition in vivo at 4 µmol/kg came to 0%.
As for `COC(=O)c1cc2nc([S+]([O-])Cc3ccc(C)cn3)[nH]c2cc1C` (stereo not shown) [* 5-COOCH3,6-CH3, H, H, H, CH3, reference compound], the inhibition in vivo at 4 µmol/kg turned out to be 50%.
In the case of `COC(=O)c1ccc2[nH]c([S+]([O-])Cc3cc(C)c(C)cn3)nc2c1` (stereo not shown) [Example 3], the inhibition in vivo at 4 µmol/kg turned out to be 100%.
Take `Cc1cnc(C[S+]([O-])c2nc3c(C)cc(C)cc3[nH]2)c(C)c1` (stereo not shown) [Example 6]: the inhibition in vivo at 4 µmol/kg turned out to be 40%.
Regarding `CC(=O)c1cc2nc([S+]([O-])Cc3ncc(C)c(C)c3C)[nH]c2cc1C` (stereo not shown) [Example 8], the inhibition in vivo at 4 µmol/kg came to 100%.
For the molecule `COC(=O)c1cc2nc([S+]([O-])Cc3ncc(C)c(C)c3C)[nH]c2cc1C` (stereo not shown) [Example 13], the inhibition in vivo at 4 µmol/kg was determined as 80%.
As to `CCOc1ccnc(C[S+]([O-])c2nc3cc(C(=O)OC)c(C)cc3[nH]2)c1` (stereo not shown) [Example 15], the inhibition in vivo at 4 µmol/kg came to 75%.

Still in this experiment, the particulars now being: Canis lupus familiaris, dose 8 μmol/kg, read-out: Effect, % inhibition (peak inhibitory effect on gastric acid secretion).
As to `CC(=O)c1cc2nc([S+]([O-])Cc3ccc(C)cn3)[nH]c2cc1C` (stereo not shown) [* 5-COCH3,6-CH3, H, H, H, CH3, reference compound], the inhibition in vivo at 8 µmol/kg stood at 80%.

Staying with this experiment, now noted: Canis lupus familiaris, dose 12 μmol/kg, read-out: Effect, % inhibition (peak inhibitory effect on gastric acid secretion).
Turning to `Cc1ccc(C[S+]([O-])c2nc3c(C)cc(C)cc3[nH]2)nc1` (stereo not shown) [* 4-CH3,6-CH3, H, H, H, CH3, reference compound], the inhibition in vivo at 12 µmol/kg was 50%.

Still in this experiment, the particulars now being: Canis lupus familiaris, dose 20 μmol/kg, read-out: Effect, % inhibition (peak inhibitory effect on gastric acid secretion).
As for `CC(=O)c1cc2nc([S+]([O-])Cc3cc(C)ccn3)[nH]c2cc1C` (stereo not shown) [* 5-COCH3,6-CH3, H, H, CH3, H, reference compound], the inhibition in vivo at 20 µmol/kg came to 30%.
With `CCc1ccc(C[S+]([O-])c2nc3cc(C(C)=O)ccc3[nH]2)nc1` (stereo not shown) [* 5-COCH3, H, H, H, H, C2 H5, reference compound], the inhibition in vivo at 20 µmol/kg came out at 40%.
Take `COC(=O)c1ccc2[nH]c([S+]([O-])Cc3ccc(C)cn3)nc2c1` (stereo not shown) [* 5-COOCH3, H, H, H, H, CH3, reference compound]: the inhibition in vivo at 20 µmol/kg is 90%.
Regarding `COC(=O)c1ccc2[nH]c([S+]([O-])Cc3ccccn3)nc2c1` (stereo not shown) [* 5-COOCH3, H, H, H, H, H, reference compound], the inhibition in vivo at 20 µmol/kg was found to be 50%.
On to `COc1ccc2[nH]c([S+]([O-])Cc3cc(C)ccn3)nc2c1` (stereo not shown) [* 5-OCH3, H, H, H, CH3, H, reference compound], for which the inhibition in vivo at 20 µmol/kg turned out to be 10%.

For the origin of these results see US4255431A, “Gastric acid secretion inhibiting substituted 2-(2-benzimidazolyl)-pyridines, pharmaceutical preparations containing same, and method for inhibiting gastric acid secretion” (priority 1978, dated 1981).
